Reference: patent EP4752152A1, “STEROID COMPOUND, AND PREPARATION METHOD THEREFOR AND USE THEREOF” (Cholesgen (Shanghai) Co.Ltd., priority 2023, dated 2025)
In brackets after ≈: the same amount, converted by molar mass. Read-outs that look alike come from different tables or passages of the source.

Columns and labels:
SREBP pathway = test: SREBP luciferase reporter gene system (SRE-luciferase assay); type: cell-based, human; conditions: Huh-7/SRE-luc cells, sterol-deficient medium, 0.01-10 µM
Outline: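 Huh-7 cells stably carrying LDLR promoter-luciferase plus GFP were treated 16 h in sterol-deficient medium (5% lipoprotein-deficient serum, 2 µM lovastatin, 10 µM mevalonic acid) at 0.01–10 µM. Luciferase/GFP ratio measured as pathway activity; inhibition versus DMSO fitted to a four-parameter model for IC50.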

[1] = Solubility in fasted-state simulated intestinal fluid (FaSSIF); type: physicochemical; conditions: FaSSIF, pH 6.5, fassif, kinetic from dmso stock, FaSSIF pH 6.5, 300 µM sample solution, room temperature
Experimental: Compound powder was dissolved in DMSO to prepare a 10.0 mM stock solution for later use. 0.021 g NaOH, 0.198 g NaH2PO4, and 0.309 g NaCl were weighed and added to 50.0 mL of ultrapure water. After thorough mixing, the pH was adjusted to 6.5 using HCl or NaOH. Then, 0.112 g of FaSSIF powder was added. After complete dissolution, the solution was allowed to stand at room temperature for 2 hours for later use. A certain volume of the compound stock solution was added to a certain volume of FaSSIF to prepare a 300 µM sample solution, which was mixed at room temperature under 1000 rpm for 1 hour. After 1 hour, the sample was centrifuged, and a certain volume of supernatant was taken. The termination solution was added to precipitate the sample, which was then thoroughly mixed and centrifuged for 20 minutes. The supernatant was then taken again, diluted with dilution solution, and then analyzed by liquid chromatography-tandem mass spectrometry (LC-MS/MS). The concentration of the test compound in the samples was quantitatively determined using LC-MS/MS. Table 3: FaSSIF solubility results of compounds from some examples

[2] = system: Fatty Acid Synthase (FASN) gene; test: Inhibition of FASN gene expression (qPCR) in Huh-7 cells; type: cell-based, human; conditions: Homo sapiens, Huh-7, 16 h, read-out: FASN IC50
Outline: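 Huh-7 cells switched to starvation DMEM (5% LPDS, 2 µM lovastatin, 10 µM mevalonate) and treated 16 h with compound, top 3000 nM, 3-fold dilutions, 5 concentrations. FASN mRNA by RT-qPCR; inhibition relative to DMSO, IC50 from four-parameter fit.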

[3] = Metabolic stability experiment of mouse liver microsomes; type: in vitro ADME
Experimental: PB solution (100 mM), MgCl2 solution (300 mM), NADPH solution (2.04 mM), and mouse liver microsome (SHQY catalog number: M1000, batch number: 2110330) solution (1.00 mg/mL) were prepared respectively. […] Then, 100 µL of mouse liver microsome solution was added to a 96-well sample plate. For the 0 min sample, acetonitrile solution containing the internal standard was first added; then, 2 µL of 100 µM working solution was added; followed by the addition of 98 µL of pre-warmed 2.04 mM NADPH at 37°C. For the 5 min, 15 min, 30 min, 45 min, and 60 min samples, 2 µL of 100 µM working solution was first added; followed by the addition of 98 µL of pre-warmed 2.04 mM NADPH at 37°C to initiate the reaction; upon reaching the respective time points, a solution of acetonitrile containing the internal standard was added to terminate the reaction. For the NCF60 sample, 2 µL of 100 µM working solution was first added; followed by the addition of 98 µL of pre-warmed PB at 37°C to initiate the reaction; upon reaching the respective time points, a solution of acetonitrile containing the internal standard was added to terminate the reaction. During the experiment, all samples were incubated in a 37°C water bath. All samples were shaken on an oscillator at 800 rpm for 10 min, then centrifuged at 3200 g for 20 min. The supernatant was aspirated, diluted with deionized water at the corresponding ratio, and analyzed by LC-MS/MS. The remaining percentage of the compound at each time point was obtained by dividing the peak area ratio of the compound at 5, 15, 30, 45, and 60 min by the peak area ratio at 0 min. The half-life (T1/2) of the compound was then calculated using Excel. Table 2: Mouse liver microsome stability results of compounds from some examples

[4] = Huh-7 cells, starvation medium, 16 hours, qPCR, class symbols

## C[C@H](CCCC(O)c1ccc2c(n1)OC(F)(F)O2)[C@H]1CC[C@H]2[C@H]3[C@H](CC[C@]12C)[C@@]1(C)CC[C@H](O)[C@H](O)[C@@H]1CC3(F)F (single isomer, unassigned) [Compound 265]
SREBP pathway; 16 hours
  IC50: 0.006 µM
[1]
  solubility at 1 h: 107 µM (≈ 62.9 µg/mL)
[2]
  IC50: < 200 nM

## CCOc1nc(F)ccc1[C@H](O)CCC[C@@H](C)[C@H]1CC[C@H]2[C@H]3[C@H](CC[C@]12C)[C@@]1(C)CC[C@H](O)[C@H](O)[C@@H]1CC3(F)F (single isomer, unassigned) [Compound 283]
SREBP pathway; Homo sapiens, Huh-7, 16 h
  IC50: 0.027 µM
[1]
  solubility at 1 h: 288 µM (≈ 163 µg/mL)
[2]; [4]
  IC50: < 200 nM

## C[C@H](CCCC(O)c1c(F)cccc1F)[C@H]1CC[C@H]2[C@H]3[C@H](CC[C@]12C)[C@@]1(C)CC[C@H](O)CC1CC3(F)F (stereo in doubt) [Compound 87, (1R,3aS,3bR,7S,9aS,9bS,11aR)-1-[(2R)-6-(2,6-difluorophenyl)-6-hydroxyhexan-2-yl]-4,4-difluoro-9a,11a-dimethylhexadecahydro-1H-cyclopenta[1,2-a]phenanthren-7-ol]
SREBP pathway; Homo sapiens, Huh-7, 16 h
  IC50: 0.055 µM
[3]
  half-life at 1 µM: 2.26 h
[2]; [4]
  IC50: < 200 nM

## COc1c(F)cccc1C(O)CCC[C@@H](C)[C@H]1CC[C@H]2[C@@H]3CC[C@H]4[C@@H](O)[C@@H](O)CC[C@]4(C)[C@H]3CC[C@]12C (stereo partly drawn) [Compound 7, 24-[(3-Fluoro-2-methoxyphenyl)(hydroxy)methyl]-5α-cholane-3β,4β-diol]
SREBP pathway; Homo sapiens, Huh-7, 16 h
  IC50: 0.07 µM
[3]
  half-life at 1 µM: 0.624 h
[2]; [4]
  IC50: 200 to 500 nM

## C[C@H](CCCC(O)c1ccccc1F)[C@H]1CC[C@H]2[C@H]3[C@H](CC[C@]12C)[C@@]1(C)CC[C@H](O)C(=O)[C@@H]1CC3(F)F (stereo partly drawn) [Compound 11, (1R,3aS,3bS,5aR,7S,9aR,9bS,11aR)-4,4-difluoro-1-[(2R)-6-(2-fluorophenyl)-6-hydroxyhexan-2-yl]-7-hydroxy-9a,11a-dimethylhexadecahydro-1H-cyclopenta[1,2-a]phenanthren-6-one]
SREBP pathway; Homo sapiens, Huh-7, 16 h
  IC50: 0.19 µM
[3]
  half-life at 1 µM: 0.819 h
[2]; [4]
  IC50: 200 to 500 nM

## COc1cccc(F)c1C(O)CCC[C@@H](C)[C@H]1CC[C@H]2[C@@H]3CC[C@H]4[C@@H](O)[C@@H](O)CC[C@]4(C)[C@H]3CC[C@]12C (stereo partly drawn) [Compound 20, 24-[(2-Fluoro-6-methoxyphenyl)(hydroxy)methyl]-5α-cholane-3β,4β-diol]
SREBP pathway; Homo sapiens, Huh-7, 16 h
  IC50: 0.23 µM
[3]
  half-life at 1 µM: 0.498 h

## COc1cc(F)ccc1C(O)CCC[C@@H](C)[C@H]1CC[C@H]2C3=C(F)C[C@H]4[C@@H](O)[C@@H](O)CC[C@]4(C)[C@H]3CC[C@]12C (stereo partly drawn) [Compound 36, (1R,3aR,5aR,6R,7S,9aR,9bR,11aR)-4-fluoro-1-[(2R)-6-(4-fluoro-2-methoxyphenyl)-6-hydroxyhexan-2-yl]-9a,11a-dimethyl-2,3,3a,5,5a,6,7,8,9,9a,9b,10,11,11a-tetradecahydro-1H-cyclopenta[1,2-a]phenanthrene-6,7-diol]
SREBP pathway; Homo sapiens, Huh-7, 16 h
  IC50: 0.2 µM
[3]
  half-life at 1 µM: > 3.1 h

## COc1cccc(C(O)CCC[C@@H](C)[C@H]2CC[C@H]3C4=C(F)C[C@H]5[C@@H](O)[C@@H](O)CC[C@]5(C)[C@H]4CC[C@]23C)c1F (stereo partly drawn) [Compound 64, (1R,3aR,5aR,6R,7S,9aR,9bR,11aR)-4-fluoro-1-[(2R)-6-(2-fluoro-3-methoxyphenyl)-6-hydroxyhexan-2-yl]-9a,11a-dimethyl-2,3,3a,5,5a,6,7,8,9,9a,9b,10,11,11a-tetradecahydro-1H-cyclopenta[1,2-a]phenanthrene-6,7-diol]
SREBP pathway; Homo sapiens, Huh-7, 16 h
  IC50: 0.318 µM
[3]
  half-life at 1 µM: 1.16 h
[2]; [4]
  IC50: < 200 nM

## COc1cccc([C@@H](O)CCC[C@@H](C)[C@H]2CC[C@H]3[C@H]4[C@H](CC[C@]23C)[C@@]2(C)CC[C@H](O)[C@H](O)[C@@H]2CC4(F)F)c1OC [Compound 70, (1R,3aS,3bS,5aR,6R,7S,9aR,9bS,11aR)-1-[(2R,6S)-6-(2,3-dimethoxyphenyl)-6-hydroxyhexan-2-yl]-4,4-difluoro-9a,11a-dimethylhexadecahydro-1H-cyclopenta[1,2-a]phenanthrene-6,7-diol]
SREBP pathway; Homo sapiens, Huh-7, 16 h
  IC50: 0.211 µM
[3]
  half-life at 1 µM: 0.581 h
[2]; [4]
  IC50: < 200 nM

## COc1nccc(F)c1C(O)CCC[C@@H](C)[C@H]1CC[C@H]2[C@H]3[C@H](CC[C@]12C)[C@@]1(C)CC[C@H](O)[C@H](O)[C@@H]1CC3(F)F (stereo partly drawn) [Compound 126, (1R,3aS,3bS,5aR,6R,7S,9aR,9bS,11aR)-4,4-difluoro-1-[(2R)-6-(4-fluoro-2-methoxypyridin-3-yl)-6-hydroxyhexan-2-yl]-9a,11a-dimethylhexadecahydro-1H-cyclopenta[1,2-a]phenanthrene-6,7-diol]
SREBP pathway; Homo sapiens, Huh-7, 16 h
  IC50: 0.153 µM
[3]
  half-life at 1 µM: 1.79 h

## C[C@H](CCC1CC(N)C1)[C@H]1CC[C@H]2[C@@H]3CC[C@H]4C[C@@H](O)CC[C@]4(C)[C@H]3CC[C@]12C (stereo partly drawn) [Compound 136, (20R)-20-[2-(3-aminocyclobutyl)ethyl]-5α-pregnan-3β-ol]
[3]
  half-life at 1 µM: 1.6 h

## C[C@H](CCCC(O)c1cccc2c1nnn2C)[C@H]1CC[C@H]2[C@H]3[C@H](CC[C@]12C)[C@@]1(C)CC[C@H](O)[C@H](O)[C@@H]1CC3(F)F (stereo partly drawn) [Compound 272, (1R,3aS,3bS,5aR,6R,7 S,9aR,9bS,11aR)-4,4-Difluoro-1-[(2R)-6-hydroxy-6-(1-methylbenzo[d][1,2,3]triazol-4-yl)hexan-2-yl]-9a,11a-dimethylhexadecahyd ro-1H-cyclopenta[1,2-a]phenanthrene-6,7-diol]
SREBP pathway; Homo sapiens, Huh-7, 16 h
  IC50: 0.116 µM
[1]
  solubility at 1 h: 225 µM (≈ 126 µg/mL)
[2]; [4]
  IC50: < 200 nM

## COc1cccc(F)c1C(O)CC[C@@H](C)[C@H]1CC[C@H]2[C@H]3[C@H](CC[C@]12C)[C@@]1(C)CC[C@H](O)[C@H](O)[C@@H]1CC3(F)F (stereo partly drawn) [Compound 333, (1R,3aS,3bS,5aR,6R,7S,9aR,9bS,11aR)-4,4-difluoro-1-[(2R)-5-(2-fluoro-6-methoxyphenyl)-5-hydroxypentan-2-yl]-9a,11a-dimethylhexadecahydro-1H-cyclopenta[1,2-a]phenanthrene-6,7-diol]
SREBP pathway; Homo sapiens, Huh-7, 16 h
  IC50: 0.118 µM
[1]
  solubility at 1 h: 148 µM (≈ 79.7 µg/mL)
[2]; [4]
  IC50: 200 to 500 nM

## COc1nc(F)ccc1[C@@H](O)CC[C@@H](C)[C@H]1CC[C@H]2[C@H]3[C@H](CC[C@]12C)[C@@]1(C)CC[C@H](O)[C@H](O)[C@@H]1CC3(F)F [Compound 337, (1R,3aS,3bS,5aR,6R,7S,9aR,9bS,11aR)-4,4-difluoro-1-[(2R,5S)-5-(6-fluoro-2-methoxypyridin-3-yl)-5-hydroxypentan-2-yl]-9a,11a-dimethylhexadecahydro-1H-cyclopenta[1,2-a]phenanthrene-6,7-diol]
SREBP pathway; Homo sapiens, Huh-7, 16 h
  IC50: 0.155 µM
[1]
  solubility at 1 h: 246 µM (≈ 133 µg/mL)
[2]; [4]
  IC50: < 200 nM

## COc1nc(F)ccc1[C@H](O)CC[C@@H](C)[C@H]1CC[C@H]2[C@H]3[C@H](CC[C@]12C)[C@@]1(C)CC[C@H](O)[C@H](O)[C@@H]1CC3(F)F [Compound 338, (1R,3aS,3bS,5aR,6R,7S,9aR,9bS,11aR)-4,4-difluoro-1-[(2R,5R)-5-(6-fluoro-2-methoxypyridin-3-yl)-5-hydroxypentan-2-yl]-9a,11a-dimethylhexadecahydro-1H-cyclopenta[1,2-a]phenanthrene-6,7-diol]
SREBP pathway; Homo sapiens, Huh-7, 16 h
  IC50: 0.143 µM
[1]
  solubility at 1 h: 34.7 µM (≈ 18.7 µg/mL)
[2]; [4]
  IC50: < 200 nM
